Source: US10626094B2 (La Jolla Institute of Allergy & Immunology, priority 2014, dated 2020)
Like-named read-outs stand apart in the source and are kept apart here.

Tests used:
[1] = molecular target: recombinant human LMPTP-A (Homo sapiens (Human), UniProt P24666); experiment: isothermal calorimetry (ITC) binding
Procedure: ML400 analog G53 (Table A) binds to LMPTP. ITC was performed using recombinant human LMPTP-A and a derivative of Compound D1, G53. Kd=0.9 microM.

[2] = molecular target: LMPTP-A (Low Molecular Weight Protein Tyrosine Phosphatase-A) enzyme (Homo sapiens (Human), UniProt P24666); experiment: LMPTP primary screening / LMPTP (OMFP) enzyme inhibition assay, fluorescence intensity; format: biochemical
Sequence of LMPTP-A (Low Molecular Weight Protein Tyrosine Phosphatase-A) enzyme (P24666 whole entry): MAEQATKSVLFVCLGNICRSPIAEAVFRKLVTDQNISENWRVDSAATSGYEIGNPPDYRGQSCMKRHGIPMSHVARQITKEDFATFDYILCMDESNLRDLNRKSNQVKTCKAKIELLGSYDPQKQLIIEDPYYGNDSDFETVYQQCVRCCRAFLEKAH
How it was run: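 0.625 nM LMPTP-A with 400 μM OMFP substrate in 50 mM Bis-Tris pH 6.0, 1 mM DTT, 0.01% Triton X-100, […]. Compounds at 20 μM final. Incubated 50 min at room temperature in the dark; fluorescence intensity read.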

[3] = tested on: insulin receptor in HepG2 cells; settings: 10 microM compound overnight, insulin 5 min
[4] = hepatic microsomal stability, mouse liver microsomes; format: in vitro ADME; settings: Mouse microsomes, 1 hr
From the text: (§1) In the course of this investigation many compounds with similar potencies in the LMPTP (OMFP) assay were found. In order to determine which compound would be the best candidate for in vivo studies, an abbreviated ADME panel was ran on these compounds, a tabulation of the most interesting data on this set of compounds is illustrated in Table 3 below. From the hepatic microsome stability data the candidate selected for in vivo studies was Compound D1.
(§2) The microsomal stability assay is commonly used to rank compounds according to their metabolic stability. This assay addresses the pharmacologic question of how long the parent compound will remain circulating in plasma within the body.

[5] = aqueous solubility (buffer pH 5.0-7.4, PBS); format: physicochemical
[6] = hepatic microsomal stability, human liver microsomes; format: in vitro ADME; settings: Human microsomes, 1 hr
From the text: as §1, §2

[7] = plasma stability, mouse plasma; format: in vitro ADME; settings: Mouse plasma, 3 hrs
From the text: (§3) Plasma stability is a measure of the stability of small molecules and peptides in plasma and is an important parameter, which can strongly influence the in vivo efficacy of a test compound. Drug candidates are exposed to enzymatic processes (proteinases. esterases) in plasma, and they can undergo intramolecular rearrangement or bind irreversibly (covalently) to proteins.

[8] = plasma stability, human plasma; format: in vitro ADME; settings: Human plasma, 3 hrs
From the text: as §3

[9] = LMPTP-A, OMFP substrate, method of Example 2, read-out: IC50
[10] = initial screening hits (Scheme 4), read-out: IC50

Sequence of recombinant human LMPTP-A (P24666 whole entry): as above

## COc1ccc(-c2cc(Nc3cccc(CC4CCNCC4)c3)c3ccccc3n2)cc1 [Compound G53, [2-(4-methoxyphenyl)(4-quinolyl)][3-(4-piperidylmethyl)phenyl]amine]
[1]
  Kd: 900 nM
[2]; [9]
  IC50: 801 to 5000 nM

## O=C(c1ccc(-c2cc(NCCCN3CCCCC3)c3ccccc3n2)cc1)N1CCOCC1 [Compound I234]
[2]; [9]
  IC50: 200 to 800 nM

## O=S(=O)(c1ccc(-c2cc(NCCCN3CCCCC3)c3ccccc3n2)cc1)N1CCSCC1 [Compound I235, 4-[(4-{4-[(3-piperidylpropyl)amino]-2-quinolyl}phenyl)sulfonyl]-1,4-thiazaperhydroine]
[2]; [9]
  IC50: 200 to 800 nM

## O=S(=O)(c1ccc(-c2cc(NCCCN3CCCCC3)c3ccccc3n2)cc1)N1CCOCC1 [Compound I236]
[2]; [9]
  IC50: 200 to 800 nM

## CCN1CCC(Cc2cccc(Nc3cc(-c4cccc(NC(C)=O)c4)nc4ccccc34)c2)CC1 [Compound I237, N-{3-[4-({3-[(1-ethyl-4-piperidyl)methyl]phenyl}amino)-2-quinolyl]phenyl}acetamide]
[2]; [9]
  IC50: 801 to 5000 nM

## Fc1c(Cl)cccc1-c1cc(NCCCN2CCCCC2)c2ccccc2n1 [Compound I238]
[2]; [9]
  IC50: 801 to 5000 nM

## CCN(CC)S(=O)(=O)c1ccccc1-c1cc(NCCCN2CCCCC2)c2ccccc2n1 [Compound I240]
[2]; [9]
  IC50: > 5000 nM

## C1=C(c2cc(NCCCN3CCCCC3)c3ccccc3n2)OCC1 [Compound I241]
[2]; [9]
  IC50: > 5000 nM

## CCN(CC)S(=O)(=O)c1ccc(C)c(-c2cc(NCCCN3CCCCC3)c3ccccc3n2)c1 [Compound I242]
[2]; [9]
  IC50: > 5000 nM

## c1ccc(-c2ccc(-c3cc(NCCCN4CCCCC4)c4ccccc4n3)cc2)cc1 [Compound I243]
[2]; [9]
  IC50: 801 to 5000 nM

## CCN(CC)S(=O)(=O)c1cccc(-c2cc(NCCCN3CCCCC3)c3ccccc3n2)c1 [Compound I244]
[2]; [9]
  IC50: > 5000 nM

## c1ccc(CSc2cccc(-c3cc(NCCCN4CCCCC4)c4ccccc4n3)c2)cc1 [Compound I245]
[2]; [9]
  IC50: > 5000 nM

## CCN(CC)S(=O)(=O)c1ccc(-c2cc(NCCCN3CCCCC3)c3ccccc3n2)cc1 [Compound I246]
[2]; [9]
  IC50: 801 to 5000 nM

## c1ccc2c(NCCCN3CCCCC3)cc(-c3ccc4sccc4c3)nc2c1 [Compound I247]
[2]; [9]
  IC50: 200 to 800 nM

## Cc1nc2ccc(-c3cc(NCCCN4CCCCC4)c4ccccc4n3)cc2s1 [Compound I248]
[2]; [9]
  IC50: 801 to 5000 nM

## O=C(NC1CCCC1)c1ccc(-c2cc(NCCCN3CCCCC3)c3ccccc3n2)cc1 [Compound I249]
[2]; [9]
  IC50: 200 to 800 nM

## CC(=O)Nc1cc(C(=O)O)cc(-c2cc(NCCCN3CCCCC3)c3ccccc3n2)c1 [Compound I250]
[2]; [9]
  IC50: 801 to 5000 nM

## CNC(=O)c1ccc(-c2cc(NCCCN3CCCCC3)c3ccccc3n2)cc1Cl [Compound I251]
[2]; [9]
  IC50: 200 to 800 nM

## NC(=O)c1ccc(-c2cc(NCCCN3CCCCC3)c3ccccc3n2)c(F)c1 [Compound I252]
[2]; [9]
  IC50: 200 to 800 nM

## O=C(NCc1ccccc1)c1ccc(-c2cc(NCCCN3CCCCC3)c3ccccc3n2)cc1 [Compound I253]
[2]; [9]
  IC50: 200 to 800 nM

## CC(=O)NCc1ccc(-c2cc(NCCCN3CCCCC3)c3ccccc3n2)cc1 [Compound I255]
[2]; [9]
  IC50: 200 to 800 nM

## c1cc2c3c(cc(-c4cc(NCCCN5CCCCC5)c5ccccc5n4)cc3c1)CC2 [Compound I256]
[2]; [9]
  IC50: 200 to 800 nM

## O=S(=O)(c1ccccc1)n1ccc2cc(-c3cc(NCCCN4CCCCC4)c4ccccc4n3)ccc21 [Compound I260]
[2]; [9]
  IC50: 801 to 5000 nM

## N#CCCNC(=O)c1ccc(-c2cc(NCCCN3CCCCC3)c3ccccc3n2)cc1 [Compound I265]
[2]; [9]
  IC50: 200 to 800 nM

## CCN(C)C(=O)c1ccc(-c2cc(NCCCN3CCCCC3)c3ccccc3n2)cc1 [Compound I266]
[2]; [9]
  IC50: 801 to 5000 nM

## O=C(NC1CC1)c1ccc(-c2cc(NCCCN3CCCCC3)c3ccccc3n2)cc1 [Compound I271]
[2]; [9]
  IC50: 801 to 5000 nM

## Cc1cccc(-c2nc(NCCCN3CCOCC3)c3ccccc3n2)c1 [Entry 1]
[2]; Table 1 quinazolinone series, CP sample (cherry pick of DMSO solution from NIH MLSMR), read-out: LMPTP (OMFP) (IC50)
  IC50: 7120 nM
[2]; Table 1 quinazolinone series, P sample (purchased from commercial sources), read-out: LMPTP (OMFP) (IC50)
  IC50: 13500 nM
[2]; [10]
  IC50: 7120 nM
[2]; read-out: LMPTP (OMFP) IC50
  IC50: 13500 nM

## c1ccc(-c2cc(NCCN3CCCCC3)c3ccccc3n2)cc1 [Entry 41]
[3]
  phosphorylation of the insulin receptor: increases phosphorylation of the insulin receptor
[4]
  Hepatic Microsome Stability % Remaining @ 1 hr: 0.38%
[5]; pH 5.0
  Aqueous Solubility Pion's buffer: 111.8 µg/mL
[5]; pH 6.2
  Aqueous Solubility Pion's buffer: 95.7 µg/mL
[5]; pH 7.4
  Aqueous Solubility Pion's buffer: 54.5 µg/mL
[6]
  Hepatic Microsome Stability % Remaining @ 1 hr: 26.54%
[7]
  Plasma Stability % Remaining @ 3 hrs: 62.25%
[8]
  Plasma Stability % Remaining @ 3 hrs: 70.08%
[2]; Table 2 quinoline series, CP sample (cherry pick of DMSO solution from NIH MLSMR), read-out: LMPTP (OMFP) (IC50)
  IC50: 3490 nM
[2]; Table 2 quinoline series, P sample (purchased from commercial sources), read-out: LMPTP (OMFP) (IC50)
  IC50: 2860 nM
[2]; Table 2 quinoline series, S sample (synthesized de novo), read-out: LMPTP (OMFP) (IC50)
  IC50: 3700 nM
[2]; [10]
  IC50: 3490 nM
[2]; purchased compound, read-out: LMPTP (OMFP) IC50
  IC50: 2860 nM
[2]; synthesized compound, read-out: LMPTP (OMFP) IC50
  IC50: 3700 nM

## CSCCCN1CCCCC1 [Entry 64]
[2]; SAR discussion
  LMPTP (OMFP) potency in words: inactive

## (2-fluoro-4-{4-[(3-piperidylpropyl)amino](2-quinolyl)}phenyl)-N-methylcarboxamide [Compound I228]
[2]; [9]
  IC50: 801 to 5000 nM

## (2-morpholin-4-ylethyl)(2-phenyl(4-quinolyl))amine [Compound I180]
[2]; [9]
  IC50: 801 to 5000 nM

## (3-piperidylpropyl)(2-(3-pyridyl)(4-quinolyl))amine [Compound I147]
[2]; [9]
  IC50: 801 to 5000 nM

## (3-piperidylpropyl)[2-(3,4,5-trifluorophenyl)(4-quinolyl)]amine [Compound I127]
[2]; [9]
  IC50: 801 to 5000 nM

## N-cyclopropyl(4-{4-[(3-piperidylpropyl)amino](2-quinolyl)}phenyl)carboxamide [Compound I70]
[2]; [9]
  IC50: 801 to 5000 nM

## N-ethyl-N-methyl(4-{4-[(3-piperidylpropyl)amino](2-quinolyl)}phenyl)carboxamide [Compound I60]
[2]; [9]
  IC50: 801 to 5000 nM

## [2-(2,4-dichlorophenyl)(4-quinolyl)](3-piperidylpropyl)amine [Compound I103]
[2]; [9]
  IC50: 801 to 5000 nM

## [2-(2,6-dichlorophenyl)(4-quinolyl)](3-piperidylpropyl)amine [Compound I100]
[2]; [9]
  IC50: > 5000 nM

## [2-(3,4-dichlorophenyl)(4-quinolyl)](3-piperidylpropyl)amine [Compound I138]
[2]; [9]
  IC50: 801 to 5000 nM

## [2-(3,5-dichlorophenyl)(4-quinolyl)](3-piperidylpropyl)amine [Compound I170]
[2]; [9]
  IC50: 801 to 5000 nM

## [2-(3-chloro-2-prop-2-enyloxy(4-pyridyl))(4-quinolyl)](3-piperidylpropyl)amine [Compound I91]
[2]; [9]
  IC50: > 5000 nM

## [2-(4-methoxyphenyl)(4-5,6,7,8-tetrahydroquinolyl)][4-(piperidylmethyl)phenyl]amine [Compound I207]
[2]; [9]
  IC50: 801 to 5000 nM

## [2-(5-bromo-2-methoxy(4-pyridyl))(4-quinolyl)](3-piperidylpropyl)amine [Compound I89]
[2]; [9]
  IC50: 801 to 5000 nM

## [2-(5-bromo-3-chloro-2-fluorophenyl)(4-quinolyl)](3-piperidylpropyl)amine [Compound I239]
[2]; [9]
  IC50: 801 to 5000 nM

## methyl 3-{4-[(3-piperidylpropyl)amino]-2-quinolyl}benzoate [Compound I155]
[2]; [9]
  IC50: 801 to 5000 nM

## {2-[2,4-bis(trifluoromethyl)phenyl](4-quinolyl)}(3-piperidylpropyl)amine [Compound I168]
[2]; [9]
  IC50: 200 to 800 nM

## {2-[3-chloro-2-(phenylmethoxy)(4-pyridyl)](4-quinolyl)}(3-piperidylpropyl)amine [Compound I88]
[2]; [9]
  IC50: 801 to 5000 nM

## {2-[5-chloro-2-(cyclopropylmethoxy)(3-pyridyl)](4-quinolyl)}(3-piperidylpropyl)amine [Compound I95]
[2]; [9]
  IC50: 801 to 5000 nM
